One data set relates to An. gambiae females. In words: Survival assays of An. gambiae females after compound exposure (acute 48 h and long-term). It is filed as in vivo, Anopheles gambiae. The following applies: for proportionate survival relative to controls: 1 mmol/m2, 60 minutes exposure, 48 h after exposure. The method, then:
(§1) Compound Exposures. Compounds (ATQ, ACE, HYD, PYR, PER, Millipore-Sigma, St. Louis, MO, USA) to be tested were dissolved in a suitable, volatile vehicle (Table S1) at stock concentrations of 3-10 mg/ml (0.3-1% w/v). Working concentrations of each compound were created through serial dilutions. To generate a compound-coated surface, a volume of working solution containing a known quantity of compound was added to 1 ml excess vehicle and transferred to a 6 cm diameter glass petri dish ([…]). Treated dishes were placed on a lateral shaker and left for 4 h or overnight until evaporation of the volatile vehicle, coating the compound to the glass substrate. Control plates were treated identically using only the acetone vehicle. A translucent plastic cup was placed over the coated surface to contain mosquitoes during exposure. A flap was cut into the base of the cup to allow the introduction of mosquitoes. Plates were used for 1 d and discarded. For exposures, 15-25 mosquitoes were introduced through the cup flap using a mouth aspirator and incubated on the treated surface for 6-60 min depending on the experimental parameters. Exposure plates were agitated once during exposure to discourage resting on the untreated walls and base of the cup. After exposure, plates were transferred to a clean 17.5 cm^3 cage (Bugdorm™, Megaview Science. Co. Taiwan).
Survival Assays. To assess acute survival following exposure: 40, females were exposed (as described above) to ATQ, PYR, ACE, HYD permethrin (PER) for 1 h at a dosage of 1 mmol/m^2 for each compound. […] Immediately after exposure, each treatment group was transferred to a 500 ml paper cup and provided with glucose. At 48 h post exposure the proportion of surviving mosquitoes in each group was determined. Differences in survival between control and compound-exposed mosquitoes were detected using Chi^2 analysis. For long-term survival, ˜100 ATQ- or control-exposed females were placed in clean 17.5 cm^3 cages (Bugdorm™, Megaview Science. Co., Taiwan). Water and a 10% w/v glucose solution was provided ad libitum. Cages were checked daily for mortality, and dead mosquitos were removed and counted. Each experiment continued until all mosquitoes had died. Differences in median time-to-death between ATQ and control treatment groups were analyzed using a Log-Rank Mantell-Cox test.

The test system of data set [1] is susceptible An. gambiae mosquitoes. The following applies: 60-minute tarsal exposure; cited from earlier work.
The subject of the next data set is P. falciparum. Description: Plasmodium falciparum infection assay in An. gambiae females after tarsal exposure to a compound-coated surface (oocyst prevalence and intensity). It is filed as in vivo, Plasmodium falciparum (NF54) in Anopheles gambiae. The note with it: for effect on prevalence of P. falciparum relative to controls / reduction of oocyst prevalence relative to controls: 1 mmol/m2, 6 minutes exposure. The method, then: as §1
Plasmodium falciparum Infection Assays. 5-d old An. gambiae females were exposed to compounds as described above. Immediately after exposure, females were transferred to a sealed, secure infection glovebox and provided an in vitro culture P. falciparum (NF54) gametocytes (1, 2) through a custom made, glass, water-heated membrane feeder. […] At 7-9 d post infectious blood meal (pIBM), females that had blood fed were vacuum aspirated into 80% ethanol, incubated for 10 minutes at −20° C., and transferred out of the secure feeding box into PBS on ice. Midguts were dissected out in PBS and stained with 0.2% w/v mercurochrome (in ddH2O) for 17 minutes. After staining, midguts were mounted on glass microscope slides in 0.02% w/v mercurochrome, and oocyst prevalence and intensity were determined by examination at 40× air objective on an inverted compound light microscope (Olympus Corporation, Waltham, MA).
Statistical Analysis. All statistical analyses were carried out using GraphPad Prism v7.0 for MacOSX (GraphPad Software Inc., La Jolla CA, USA). For infections, differences in prevalence were analyzed by Chi^2. In experiments where both treatment groups had individuals that produced >0 oocysts, differences in median oocyst burden between groups (intensity of infection) was analyzed using a Mann-Whitney Mean Ranks test. For multiple comparisons (e.g. FIG. 3) differences in prevalence between multiple groups were determined using pair-wise Chi^2 corrected for multiple comparisons (Bonferroni). Similarly, multiple comparisons of intensity were carried out using Wilcoxon with Dunn's post hoc. To determine IC50 from dose-response data, the mean relative inhibition (ATQ exposed prevalence/Control prevalence) was calculated for each tested dose and fit with a sigmoidal curve function using non-linear regression.

Where [2] appears, read: 10 μmol/m^2, 60 minutes exposure.
The mark [3] stands for this setting: 1 mmol/m2, 60 minutes exposure immediately prior to infection.

Entries after “also recorded” stand apart in the source; their conditions may differ.

Take `CC1(C)C(C=C(Cl)Cl)C1C(=O)OCc1cccc(Oc2ccccc2)c1` (stereo not shown) [permethrin]: the “proportionate survival relative to controls” value with An. gambiae females was determined as 0.055. The LC50 in data set [1] is recorded as 63 μmol/m^2.

Take `CCCCCCCCCCOc1cc2c(O)c(C(=O)OCC)cnc2cc1OCC` [DEC, decoquinate]: the “effect on prevalence of P. falciparum relative to controls” value in the data set with P. falciparum is given as “no detectable effect on infection; also recorded: Neither compound is capable of reducing the prevalence”. In the data set on An. gambiae females, the “proportionate survival relative to controls” value is 1.084.

Take `O=C1C(O)=C([C@H]2CC[C@H](c3ccc(Cl)cc3)CC2)C(=O)c2ccccc21` [ATQ, atovaquone]: in the data set with P. falciparum (setting [2]), the “inhibition of intensity of infection compared to controls” value turned out to be 87.5% and the “inhibition of prevalence of infection compared to controls” value is 87.6%. In addition, in the data set on P. falciparum (100 μmol/m2, 6 min exposure), the oocyst intensity turned out to be 0% and the “prevalence of infection (P. falciparum oocysts)” value is recorded as 0%. For the same compound, in the data set with P. falciparum (1 mmol/m2, 6 min exposure), the oocyst intensity is recorded as 0% and the “prevalence of infection (P. falciparum oocysts)” value stood at 0%. In the data set with P. falciparum (setting [3]), the oocyst intensity came to 0% and the “prevalence of infection (P. falciparum oocysts)” value was determined as 0%. Besides, in the data set with P. falciparum (60 minutes tarsal exposure, interpolated from dose-response curve), the “IC50 of pre-infection exposure (surface concentration; prevalence of infection)” value is listed as 1.77 μmol/m^2. Moreover, the “proportionate survival relative to controls” value in the data set on An. gambiae females is given as 0.975. In addition, in the data set on An. gambiae females (ATQ- vs control-exposed females, followed until death), the “effect on acute or long-term survival of An. gambiae females” value is on record as “no effect”.

Turning to `CCCCCCCCCCCCC1=C(OC(C)=O)C(=O)c2ccccc2C1=O` [ACE, acequinocyl], in the data set with P. falciparum, the “effect on prevalence of P. falciparum relative to controls” value is “strongly reduced prevalence” and the “reduction of oocyst prevalence relative to controls” value came to 64.3%. The “proportionate survival relative to controls” value in the data set with An. gambiae females is 1.059.

`CCc1nc(N)nc(N)c1-c1ccc(Cl)cc1` [PYR, pyrimethamine]: the “proportionate survival relative to controls” value in the data set with An. gambiae females is on record as 1.000.

On to `CC1(C)CNC(=NN=C(/C=C/c2ccc(C(F)(F)F)cc2)/C=C/c2ccc(C(F)(F)F)cc2)NC1` [HYD, hydramethylnon], for which, in the data set with P. falciparum, the “effect on prevalence of P. falciparum relative to controls” value is listed as “strongly reduced prevalence” and the “reduction of oocyst prevalence relative to controls” value stood at 63.9%. Besides, the “proportionate survival relative to controls” value with An. gambiae females turned out to be 0.976.

These data come from patent US12520840B2, “Method for reducing parasite burden in a mosquito” (PRESIDENT AND FELLOWS OF HARVARD COLLEGE, priority 2018, dated 2026).
